Legend:
[1] = test system: lupus anti-dsDNA monoclonal antibody, R4A; experiment: Competitive ELISA, R4A binding to bound DWEYS peptide; design: species or system mouse; conditions: for inhibition of R4A binding, DWEYS: competitive ELISA, bound D-DWEYS, at the most effective concentration of compound; for inhibition of R4A binding to D-DWEYS-5 peptide on ELISAs: R4A 2 μg/ml, 1 μM, 10 μM and 100 μM, highest concentrations showed the greatest inhibition
Description: (§1) To test whether these antiviral drugs might inhibit R4A binding, competitive ELISAs, with bound DWEYS peptide, bound dsDNA, or bound C1q protein, were performed. […] Activity in these ELISAs is predictive of binding activity with naturally occurring anti-dsDNA antibodies in lupus patients.
(§2) ELISAs. […] Antigens were absorbed to microtiter plate wells (either D-DWEYS (20 μg/ml) in PBS, calf thymus DNA (100 μg/ml) in NaHCO3 (0.1M, pH 8.6) or full length complement component C1q (10-20 μg/ml) in PBS) overnight at 37° C. […] The competitive ELISA was performed as described, using R4A monoclonal antibodies (2-20 μg/ml). […] The plates were washed and alkaline phosphatase-conjugated goat anti-mouse IgG antibody was added for 1 h at 37° C.

[2] = test system: lupus anti-dsDNA monoclonal antibody, R4A; experiment: Competitive ELISA, R4A binding to bound dsDNA (calf thymus DNA); design: species or system mouse; conditions: for inhibition of R4A binding, DNA: competitive ELISA, bound calf thymus DNA, at the most effective concentration of compound
Description: as §1, §2

[3] = test system: lupus anti-dsDNA monoclonal antibody, R4A; experiment: Competitive ELISA, R4A binding to bound C1q protein; design: species or system mouse; conditions: at the most effective concentration of compound
Description: as §1, §2

[4] = test system: mouse monoclonal anti-dsDNA antibody, R4A; experiment: Deposition of R4A to kidney glomeruli ex vivo; type: binding; conditions: detected with fluorescently-labeled secondary antibody
Description: Nephrotoxicity: nelfinavir was also found to suppress pathologic deposition of mouse monoclonal anti-dsDNA antibody, […], to kidney glomeruli ex vivo. […] For methodology see Bloom, O. et al., (2011), PNAS 108:10255-10259 and Zhang, J. et al., (2009), J. Autoimmun. 33:270-274.

[5] = test system: lupus patient sera components binding to DNA (anti-dsDNA antibodies); experiment: ELISA, lupus patient sera binding to DNA; design: species or system human; conditions: compound at 1, 10 and 100 micromolar; sera from lupus patients with elevated anti-dsDNA titers
Description: In early tests, inhibition of lupus patient sera components binding to DNA by nelfinavir was observed (data not shown). Sera, collected from lupus patients with moderately active disease and elevated titers of anti-dsDNA antibodies, was used for an ELISA assay for binding to DNA. The addition of nelfinavir in micromolar concentrations of 1, 10 and 100 decreased DNA binding by an average of 43%.

[6] = test system: R4A-induced apoptosis in the central nervous system; experiment: R4A-induced neurotoxicity in vivo, hippocampal injection, TUNEL staining; conditions: R4A pre-incubated with inhibitor 15 min at 37° C., injected into hippocampus; brain slices after 48 hours
Description: Neurotoxicity: protection from R4A-induced apoptosis in the central nervous system was assessed by TUNEL staining. […] R4A was pre-incubated with vehicle or HIV protease inhibitors for 15 min. at 37° C. The preparation was then stereotaxically injected into the hippocampus of test animals. After 48 hours, brain slices at the injection site were subjected to TUNEL staining. […] For methodology see Bloom, O. et al., (2011), supra, and Zhang, J. et al., (2009), supra.

[7] = in vivo; cited from earlier work
[8] = test system: cytochrome P-450 enzymes; conditions: cited from earlier work
[9] = R4A 5 μg/ml, compound at 25 μM and 50 μM

Row | inhibition of R4A binding, DWEYS [1] [%] | inhibition of R4A binding, C1q assay [3] [%] | inhibition of R4A binding to D-DWEYS-5 peptide on ELISAs [1] | R4A binding (deposition) to kidney glomeruli ex vivo [4] | inhibition of R4A binding to DWEYS peptide on ELISAs [1, 9] | Structure (SMILES) | inhibition of R4A binding, DNA [2] [%] | inhibition of R4A binding to DNA on ELISAs [2, 9] | decrease of lupus patient sera DNA binding (average) [5] [%] | protection from R4A neurotoxicity (TUNEL staining) [6] | time until steady state of the drug is achieved [7] [days] | metabolizing cytochrome P-450 enzymes [8]
1 | 31 | 18 | – | – | – | CC(C)(C)NCC1CC2CCCCC2CN1CC(O)C(Cc1ccccc1)NCC(CCN)NCC1Nc2ccccc2CC1O (stereo not shown) [12W, 2-((4-amino-1-(4-(3-((tert-butylamino)methyl)octahydroisoquinolin-2(1H)-yl)-3-hydroxy-1-phenylbutan-2-ylamino)butan-2-ylamino)methyl)-1,2,3,4-tetrahydroquinolin-3-ol] | 32 | – | – | – | – | –
2 | 46 | 64 | improved inhibition | only nelfinavir decreased | – | COC(=O)N[C@H](C(=O)N[C@@H](Cc1ccccc1)[C@@H](O)CN(Cc1ccc(-c2ccccn2)cc1)NC(=O)[C@@H](NC(=O)OC)C(C)(C)C)C(C)(C)C [Atazanavir, atazanavir] | 38 | – | – | – | – | –
3 | 56 | 38 | improved inhibition | only nelfinavir decreased | – | Cc1cccc(C)c1OCC(=O)N[C@@H](Cc1ccccc1)[C@@H](O)C[C@H](Cc1ccccc1)NC(=O)[C@H](C(C)C)N1CCCNC1=O [Lopinavir, lopinavir] | 32 | – | – | – | – | –
4 | 8 | 13 | – | – | – | CC(C)c1nc(CN(C)C(=O)N[C@H](C(=O)N[C@@H](Cc2ccccc2)C[C@H](O)[C@H](Cc2ccccc2)NC(=O)OCc2cncs2)C(C)C)cs1 [Ritonavir, ritonavir] | 0 | – | – | – | – | –
5 | 33 | 54 | improved inhibition | only nelfinavir decreased | – | CC(C)(C)NC(=O)[C@@H]1C[C@@H]2CCCC[C@@H]2CN1C[C@@H](O)[C@H](Cc1ccccc1)NC(=O)[C@H](CC(N)=O)NC(=O)c1ccc2ccccc2n1 [Saquinavir, saquinavir] | 31 | – | – | – | – | –
6 | – | – | – | decreased the R4A binding | Significant inhibition | Cc1c(O)cccc1C(=O)N[C@@H](CSc1ccccc1)[C@H](O)CN1C[C@H]2CCCC[C@H]2C[C@H]1C(=O)NC(C)(C)C [nelfinavir] | – | Significant inhibition | 43 | block neurotoxicity | 6 | CYP3A4, CYP2C19, CYP2C9, and CYP2D6

Row | Structure (SMILES) | inhibition of R4A binding, DWEYS [1] [%] | inhibition of R4A binding, C1q assay [3] [%] | inhibition of R4A binding to D-DWEYS-5 peptide on ELISAs [1] | R4A binding (deposition) to kidney glomeruli ex vivo [4] | inhibition of R4A binding to DWEYS peptide on ELISAs [1, 9] | inhibition of R4A binding, DNA [2] [%] | inhibition of R4A binding to DNA on ELISAs [2, 9] | decrease of lupus patient sera DNA binding (average) [5] [%] | protection from R4A neurotoxicity (TUNEL staining) [6] | time until steady state of the drug is achieved [7] [days] | metabolizing cytochrome P-450 enzymes [8]
7 | CC(C)CN(C[C@@H](O)[C@H](Cc1ccccc1)NC(=O)O[C@H]1CO[C@H]2OCC[C@H]21)S(=O)(=O)c1ccc(N)cc1 [Darunavir, darunavir] | 16 | 0 | – | – | – | 3 | – | – | – | – | –
